Reference: US20240199552A1, “AMIDE COMPOUND AND USE THEREOF” (Metisa Biotechnology Co., Ltd, priority 2021, published 2024)

Tests used:
Type in all cases: in vivo
Diamondback moth = test: Insecticidal activity against Diamondback moth, Airbrush spray on cabbage leaf discs; conditions: Plutella xylostella, foliar, 72 h; for mortality at 1.25 µg/mL: 1.25 mg/L, 3rd-instar larvae, read-out: mortality rate against Diamondback moth; for mortality at 1.25 µg/mL / mortality at 10 µg/mL: 3 days after the administration; for mortality at 10 µg/mL: 10 mg/L, Diamondback moth, read-out: Mortality rate (%, 3 days after the administration) 10 mg/L
Procedure: (§1) After the compound to be determined was dissolved in a mixed solvent of acetone/methanol (1:1), it was diluted with water containing 0.1% (wt) Tween-80 to a desired concentration.
(§2) Mythimna separata, Diamondback moth, Chilo suppressalis, Spodoptera exigua, Myzus persicae, and Franklinella occidentalis were used as targets, and the activity was tested by an Airbrush spray method.
Determination method: cabbage leaves were formed into leaf discs having a diameter of 2 cm using a puncher, and the front and back of each leaf disc were sprayed under an Airbrush spray treatment pressure of 10 psi (approximate to 0.7 kg/cm^2) and with a spray volume of 0.5 mL. After drying in the shade, 10 3rd-instar larvae were inoculated for each treatment, and each treatment was repeated for 3 times. After the treatment, the leaf discs were placed into an observation chamber at 25° C. and with a relative humidity of 60% to 70%, and the number of living larvae was investigated 3 days after the administration of the compounds, and the mortality rates were calculated.

[1] = test system: Franklinella occidentalis; test: Insecticidal activity against Franklinella occidentalis nymphs, sprayed bean leaves
Procedure: as §1, §2
Determination method: fresh bean leaves cultivated in a greenhouse were selected, a hand-held Airbrush sprayer was used to spray uniformly, each treatment was 1 mL, and after being air-dried naturally, the leaves were placed in a finger-shaped tube. Neat and healthy Franklinella occidentalis nymphs were introduced, there were 15 nymphs for each treatment, 3 replicates were set for the experiment, and water treatment was set as a blank control. After the treatment, the leaves were put into an indoor culture room for culture at 24° C., a relative humidity of 60-70%, and natural light. After 72 h, the number of live insects was investigated and the mortality rate was calculated.

Mythimna separata = test: Insecticidal activity against Mythimna separata, Airbrush spray on maize leaf pieces; conditions: 72 h, 0.05 mg/L, 3 days after the administration, 3rd-instar larvae, read-out: mortality rate against Mythimna separata
Procedure: as §1, §2
Determination method: maize leaves were cut into 2 cm leaf pieces, and the front and back of each leaf piece were sprayed under an Airbrush spray treatment pressure of 10 psi (approximate to 0.7 kg/cm^2) and with a spray volume of 0.5 mL. After drying in the shade, 10 3rd-instar larvae were inoculated for each treatment, and each treatment was repeated for 3 times. After the treatment, the leaf pieces were put into an observation chamber at 25° C. and with a relative humidity of 60% to 70%, and the number of living larvae was investigated 3 days after the administration of the compounds, and the mortality rates were calculated.

Chilo suppressalis = test: Insecticidal activity against Chilo suppressalis, sprayed rice stems; conditions: 72 h, 0.625 mg/L, 3 days after the administration, 3rd-instar larvae, read-out: mortality rate against Chilo suppressalis
Procedure: as §1, §2
Determination method: 1) Preparation of rice seedlings: rice was cultured in a plastic small cup with a diameter of 4.5 cm and a height of 4 cm in a constant temperature room (the temperature was 26-28° C., the relative humidity was about 60-80%, and the illumination was 16hL:8hD), when the rice grown to a 4-5 leaf stage, robust and uniformly grown rice seedlings were selected for pharmaceutical treatment, and 3 replicates were set for each treatment. 2) Preparation of test insects: 3rd-instar larvae of Chilo suppressalis were continuously reared indoors. 3) Rice stems were sprayed and insects were introduced. A spray method was used to treat whole rice seedlings with uniform spray, and each treatment was 15 mL. Blank controls were treated firstly, and then the above operation was repeated in an order of experimental concentrations from low to high. After the spray treatment of the rice seedlings, they were placed in the shade to air-dry drug liquid, about 5 cm of the stem from a basal part of the stem was cut and fed to the test insects. A glass culture dish with a diameter of 90 mm was prepared, filter paper was placed on the bottom of the dish, then water was added to moisturize. About 5 rice stems were placed in each dish, 10 larvae were introduced, and the culture dish was closed with non-woven fabric and placed in the constant-temperature room for culture. 3 days after the administration, the number of residual live insects was investigated.

Spodoptera exigua = test: Insecticidal activity against Spodoptera exigua, leaf disc dipping feeding method; conditions: foliar, 72 h, 0.625 mg/L, 3 days after the administration, read-out: mortality rate against Spodoptera exigua
Procedure: After the compound to be determined was dissolved in a mixed solvent of acetone/methanol (1:1), it was diluted with water containing 0.1% (wt) Tween-80 to a desired concentration. […]
Determination method: the activity was tested by using a leaf disc dipping feeding method. Leaf discs were dipped in a drug solution for 10 s, and placed in a culture dish after being air-dried, there were 4 discs in each dish, and a filter paper was placed in the culture dish for moisture retention. 10 test insects of Spodoptera exigua were introduced to each dish, with 3 replicates.
They were placed in a light incubator for culture at a temperature of 25° C. and an illumination of 14hL:10hD. On the 1st, 2nd, and 3rd day after the administration, the number of dead Spodoptera exigua was investigated and the mortality rate was calculated.

Myzus persicae = test: Insecticidal activity against Myzus persicae, Airbrush spray on cabbage leaves; conditions: 50 mg/L, after 48 h, read-out: mortality rate against Myzus persicae
Procedure: as §1, §2
Determination method: a culture dish with a diameter of 6 cm was taken, the bottom of the dish was covered by a layer of filter paper, and an appropriate amount of tap water was added to moisturize the paper. Cabbage leaves with an appropriate size (the diameter was about 3 cm) and 15-30 aphids grown were cut from cabbage plants used to culture Myzus persicae, winged aphids and aphids on the front of the leave were removed, and it was placed in the culture dish while the back of the leave was upward. The pressure of airbrush spray treatment was 10 psi (about 0.7 kg/cm^2), the liquid spray volume was 0.5 mL, and there were 3 replicates for each treatment. After the treatment, the leave was put into an observation room for culture at 25° C. and a relative humidity of 60-70%. After 48 h, the number of live insects was investigated and the mortality rate was calculated.

cat flea = test: Insecticidal experiment on cat flea, thin film in culture dish; conditions: Ctenocephalides felis, 72 h, read-out: mortality rate, cat flea
Procedure: 4 mg of the compound to be determined was dissolved in 40 mL of acetone to obtain an acetone solution with a concentration of 100 mg/L. 400 μL of the drug solution was applied on the bottom and sides of a culture dish with an inner diameter of 5.3 cm, then after acetone was evaporated, a thin film of the compound of the present invention was made on the inner wall of the culture dish. The inner wall of the culture dish used was 40 cm^2, and the treatment dosage was 1 μg/cm^2. 10 adult cat fleas (mixed male and female) were put into the dish, and it was stored in a constant-temperature room at 25° C. after being covered. The number of dead insects after 72 h was checked and the mortality rate was calculated. The experiment was repeated for 3 times.

Row | SMILES | mortality at 0.156 µg/mL (Diamondback moth; read-out: Mortality rate (%, 3 days after the administration) 0.156 mg/L) [%] | mortality at 0.313 µg/mL (Diamondback moth; read-out: Mortality rate (%, 3 days after the administration) 0.313 mg/L) [%] | Mortality rate (%, 3 days after the administration) 10 mg/L ([1]; 10 mg/L) [%] | Mortality rate (%, 3 days after the administration) 100 mg/L ([1]; 100 mg/L) [%] | mortality at 0.05 µg/mL (Mythimna separata) [%] | mortality at 1.25 µg/mL (Diamondback moth) [%] | mortality at 10 µg/mL (Diamondback moth) [%] | mortality at 0.625 µg/mL (Chilo suppressalis) [%] | mortality at 0.625 µg/mL (Spodoptera exigua) [%] | mortality at 50 µg/mL (Myzus persicae) [%] | mortality at 1 µg/cm2 (cat flea) [%]
1 | CN(C(=O)c1ccccc1)c1cccc(C(=O)Nc2c(Br)cc(C(F)(C(F)(F)F)C(F)(F)F)cc2C(F)(F)F)c1F [KC3, broflanilide, reference compound] | 50 | 93.3 | 31.11 | 57.78 | – | – | – | – | – | – | –
2 | C#CCN(C(=O)c1ccc(C(F)(F)F)nc1)c1cccc(C(=O)Nc2c(Br)cc(C(F)(C(F)(F)F)C(F)(F)F)cc2C(F)(F)F)c1F [Compound 55] | – | – | – | – | > 90 | > 90 | 100 | > 90 | > 90 | > 90 | > 90
3 | C#CCN(C(=O)c1ccccc1)c1cccc(C(=O)Nc2c(I)cc(C(F)(C(F)(F)F)C(F)(F)F)cc2C(F)(F)F)c1F [Compound 32] | – | – | – | – | > 90 | > 90 | 100 | > 90 | > 90 | > 90 | > 90
4 | C=CCN(C(=O)c1ccc(C(F)(F)F)nc1)c1cccc(C(=O)Nc2c(Br)cc(C(F)(C(F)(F)F)C(F)(F)F)cc2C(F)(F)F)c1F [Compound 27] | – | – | – | – | > 90 | > 90 | 100 | > 90 | > 90 | > 90 | > 90
5 | C=CCN(C(=O)c1ccccc1)c1cccc(C(=O)Nc2c(C)cc(C(F)(C(F)(F)F)C(F)(F)F)cc2C)c1 [KC1, reference compound] | – | – | – | – | – | – | 0 | – | – | – | –
6 | C=CCN(C(=O)c1ccccc1)c1cccc(C(=O)Nc2c(I)cc(C(F)(C(F)(F)F)C(F)(F)F)cc2C(F)(F)F)c1F [Compound 4] | – | – | – | – | > 90 | > 90 | 100 | > 90 | > 90 | > 90 | > 90
7 | C=CCN(C(=O)c1ccc(C#N)nc1)c1cccc(C(=O)Nc2c(Br)cc(C(F)(C(F)(F)F)C(F)(F)F)cc2C(F)(F)F)c1F [Compound 23] | – | – | – | – | > 90 | > 90 | 100 | > 90 | > 90 | > 90 | > 90
8 | C=CCN(C(=O)c1ccc(C(F)(F)F)nc1)c1cccc(C(=O)Nc2c(I)cc(C(F)(C(F)(F)F)C(F)(F)F)cc2C(F)(F)F)c1F [Compound 28] | – | – | – | – | > 90 | > 90 | 100 | > 90 | > 90 | > 90 | > 90
